Experiments:
Assay in all cases: Test C greenhouse herbicide test, pre- and postemergence
Format in all cases: in vivo
[1] = test system: ryegrass, Italian (Italian ryegrass, Lolium multiflorum)
Procedure, shortened: (§1)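 Preemergence: seeds sown in a loam soil–sand blend and sprayed with test chemicals in a non-phytotoxic solvent mixture containing surfactant. Postemergence: plants grown in peat-based medium and treated at 2 to 18 cm (1- to 4-leaf stage). After 13 to 15 d in a greenhouse, injury was visually rated 0–100 against controls.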

corn (Zea mays) = test system: corn (Zea mays)
Procedure, shortened: as §1

[2] = test system: waterhemp (common waterhemp, Amaranthus rudis)
Procedure, shortened: as §1

[3] = test system: crabgrass, large (large crabgrass, Digitaria sanguinalis)
Procedure, shortened: as §1

[4] = test system: wheat (winter wheat, Triticum aestivum)
Procedure, shortened: as §1

[5] = test system: velvetleaf (Abutilon theophrasti)
Procedure, shortened: as §1

[6] = test system: johnsongrass (Sorghum halepense)
Procedure, shortened: as §1

[7] = test system: morningglory (Ipomoea coccinea)
Procedure, shortened: as §1

[8] = test system: pigweed (Amaranthus retroflexus)
Procedure, shortened: as §1

[9] = test system: ragweed (common ragweed, Ambrosia elatior)
Procedure, shortened: as §1

[10] = test system: nutsedge, yellow (yellow nutsedge, Cyperus esculentus)
Procedure, shortened: as §1

soybean (Glycine max) = test system: soybean (Glycine max)
Procedure, shortened: as §1

[11] = test system: blackgrass (Alopecurus myosuroides)
Procedure, shortened: as §1

[12] = test system: lambsquarters (Chenopodium album)
Procedure, shortened: as §1

[13] = test system: barnyardgrass (Echinochloa crus-galli)
Procedure, shortened: as §1

[14] = Postemergence, 31 g ai/ha, 0 to 100 scale (0 no effect, 100 complete control)
[15] = Postemergence, 125 g ai/ha, scale 0 to 100, 0 is no effect, 100 is complete control
[16] = Postemergence, 250 g ai/ha, scale 0 to 100, 0 no effect, 100 complete control, 13 to 15 d
[17] = Preemergence, 31 g ai/ha, scale 0 to 100, 0 is no effect, 100 is complete control
[18] = Preemergence, 62 g ai/ha, scale 0 to 100, 0 is no effect, 100 is complete control
[19] = Preemergence, 125 g ai/ha, scale 0 to 100, 0 is no effect, 100 is complete control
[20] = Preemergence, 250 g ai/ha, scale 0 to 100, 0 no effect, 100 complete control
[21] = postemergence, 62 g ai/ha, scale 0 to 100, 0 no effect, 100 complete control
[22] = Postemergence, 31 g ai/ha, scale 0 to 100 (0 no effect, 100 complete control)
[23] = Postemergence, 62 g ai/ha, 0 to 100 scale (0 no effect, 100 complete control)
[24] = Postemergence, 250 g ai/ha, scale 0 to 100, 0 is no effect, 100 is complete control
[25] = postemergence, 125 g ai/ha, scale 0 to 100, 0 no effect, 100 complete control

Cc1ccc2ccccc2c1-c1c(OC(=O)OC(C)C)c(C)nn(C)c1=O [Compound 72]
10: Corn plant response rating (corn (Zea mays); [21]) | Crabgrass, Large plant response rating [3, 14] | Plant response rating, Nutsedge, Yellow [10, 17] | Plant response rating, Nutsedge, Yellow [10, 18] | Soybean plant response rating (soybean (Glycine max); [14]) | Plant response rating, Barnyardgrass [13, 17]
95: Plant response rating, Velvetleaf [5, 16] | Plant response rating, Morningglory [7, 15] | Plant response rating, Pigweed [8, 15] | Plant response rating, Ragweed [9, 15] | Ragweed plant response rating [9, 20] | Plant response rating, Lambsquarters [12, 16]
15: Plant response rating, Soybean (soybean (Glycine max); [15]) | Soybean plant response rating (soybean (Glycine max); [21])
5: Corn plant response rating (corn (Zea mays); [14]) | Plant response rating, Wheat [4, 15] | Johnsongrass plant response rating [6, 14] | Plant response rating, Johnsongrass [6, 15] | Johnsongrass plant response rating [6, 21]
65: Waterhemp plant response rating [2, 21] | Plant response rating, Crabgrass, Large [3, 19] | Plant response rating, Lambsquarters [12, 18] | Plant response rating, Barnyardgrass [13, 16]
45: Velvetleaf plant response rating [5, 14] | Plant response rating, Velvetleaf [5, 18] | Plant response rating, Johnsongrass [6, 16]
100: Plant response rating, Morningglory [7, 16] | Pigweed plant response rating [8, 20] | Plant response rating, Ragweed [9, 19]
70: Waterhemp plant response rating [2, 14] | Plant response rating, Nutsedge, Yellow [10, 15] | Nutsedge, Yellow plant response rating [10, 20] | Plant response rating, Blackgrass [11, 19] | Blackgrass plant response rating [11, 21]
20: Plant response rating, Corn (corn (Zea mays); [15]) | Corn plant response rating (corn (Zea mays); [20]) | Plant response rating, Barnyardgrass [13, 18]
40: Wheat plant response rating [4, 20] | Plant response rating, Blackgrass [11, 17] | Barnyardgrass plant response rating [13, 21]
50: Plant response rating, Blackgrass [11, 18] | Plant response rating, Barnyardgrass [13, 15]
55: Plant response rating, Barnyardgrass [13, 19]
90: Plant response rating, Ryegrass, Italian [1, 15] | Plant response rating, Ryegrass, Italian [1, 16] | Plant response rating, Ryegrass, Italian [1, 17] | Plant response rating, Ryegrass, Italian [1, 18] | Plant response rating, Ryegrass, Italian [1, 19] | Ryegrass, Italian plant response rating [1, 20] | Ryegrass, Italian plant response rating [1, 21] | Plant response rating, Waterhemp [2, 18] | Plant response rating, Waterhemp [2, 19] | Waterhemp plant response rating [2, 20] | Plant response rating, Morningglory [7, 19] | Morningglory plant response rating [7, 20] | Morningglory plant response rating [7, 21] | Plant response rating, Pigweed [8, 17] | Pigweed plant response rating [8, 21] | Plant response rating, Ragweed [9, 16] | Plant response rating, Ragweed [9, 18] | Ragweed plant response rating [9, 21] | Plant response rating, Blackgrass [11, 16] | Blackgrass plant response rating [11, 20] | Plant response rating, Lambsquarters [12, 15] | Lambsquarters plant response rating [12, 20]
80: Plant response rating, Crabgrass, Large [3, 18] | Plant response rating, Velvetleaf [5, 19] | Plant response rating, Johnsongrass [6, 19] | Morningglory plant response rating [7, 14] | Ragweed plant response rating [9, 14] | Plant response rating, Soybean (soybean (Glycine max); [17]) | Plant response rating, Blackgrass [11, 15] | Barnyardgrass plant response rating [13, 20]
60: Plant response rating, Crabgrass, Large [3, 16] | Plant response rating, Crabgrass, Large [3, 17] | Plant response rating, Nutsedge, Yellow [10, 19] | Nutsedge, Yellow plant response rating [10, 21] | Blackgrass plant response rating [11, 14] | Plant response rating, Lambsquarters [12, 17]
98: Plant response rating, Pigweed [8, 16] | Plant response rating, Pigweed [8, 18] | Plant response rating, Pigweed [8, 19]
35: Plant response rating, Crabgrass, Large [3, 15] | Plant response rating, Wheat [4, 16] | Barnyardgrass plant response rating [13, 14]
25: Plant response rating, Corn (corn (Zea mays); [16]) | Crabgrass, Large plant response rating [3, 21] | Plant response rating, Johnsongrass [6, 18]
85: Ryegrass, Italian plant response rating [1, 14] | Plant response rating, Waterhemp [2, 15] | Plant response rating, Waterhemp [2, 16] | Crabgrass, Large plant response rating [3, 20] | Plant response rating, Velvetleaf [5, 15] | Velvetleaf plant response rating [5, 20] | Velvetleaf plant response rating [5, 21] | Johnsongrass plant response rating [6, 20] | Plant response rating, Morningglory [7, 18] | Pigweed plant response rating [8, 14] | Plant response rating, Ragweed [9, 17] | Plant response rating, Nutsedge, Yellow [10, 16] | Lambsquarters plant response rating [12, 14] | Plant response rating, Lambsquarters [12, 19] | Lambsquarters plant response rating [12, 21]
30: Wheat plant response rating [4, 14] | Plant response rating, Wheat [4, 19] | Wheat plant response rating [4, 21] | Plant response rating, Velvetleaf [5, 17] | Nutsedge, Yellow plant response rating [10, 14] | Plant response rating, Soybean (soybean (Glycine max); [16])
0: Plant response rating, Corn (corn (Zea mays); [17]) | Plant response rating, Corn (corn (Zea mays); [18]) | Plant response rating, Corn (corn (Zea mays); [19]) | Plant response rating, Wheat [4, 17] | Plant response rating, Wheat [4, 18] | Plant response rating, Johnsongrass [6, 17] | Plant response rating, Soybean (soybean (Glycine max); [18]) | Plant response rating, Soybean (soybean (Glycine max); [19]) | Soybean plant response rating (soybean (Glycine max); [20])
75: Plant response rating, Waterhemp [2, 17] | Plant response rating, Morningglory [7, 17]

Cc1nn(C)c(=O)c(-c2c([N+](=O)[O-])ccc3ccccc23)c1O [Compound 165]
70: Plant response rating, Ryegrass, Italian [1, 24] | Waterhemp plant response rating [2, 23] | Morningglory plant response rating [7, 23] | Pigweed plant response rating [8, 23] | Plant response rating, Lambsquarters [12, 22]
5: Plant response rating, Corn (corn (Zea mays); [24]) | Crabgrass, Large plant response rating [3, 23] | Plant response rating, Wheat [4, 22] | Wheat plant response rating [4, 23] | Johnsongrass plant response rating [6, 23] | Plant response rating, Blackgrass [11, 22]
35: Plant response rating, Nutsedge, Yellow [10, 24]
55: Ryegrass, Italian plant response rating [1, 25] | Ragweed plant response rating [9, 23]
20: Plant response rating, Crabgrass, Large [3, 24] | Crabgrass, Large plant response rating [3, 25] | Plant response rating, Velvetleaf [5, 22] | Velvetleaf plant response rating [5, 25] | Plant response rating, Nutsedge, Yellow [10, 22] | Blackgrass plant response rating [11, 25]
25: Velvetleaf plant response rating [5, 23] | Nutsedge, Yellow plant response rating [10, 25] | Plant response rating, Blackgrass [11, 24] | Plant response rating, Barnyardgrass [13, 24] | Barnyardgrass plant response rating [13, 25]
10: Wheat plant response rating [4, 25] | Johnsongrass plant response rating [6, 25] | Plant response rating, Soybean (soybean (Glycine max); [22]) | Soybean plant response rating (soybean (Glycine max); [23]) | Plant response rating, Barnyardgrass [13, 22]
0: Plant response rating, Corn (corn (Zea mays); [22]) | Corn plant response rating (corn (Zea mays); [23]) | Corn plant response rating (corn (Zea mays); [25]) | Plant response rating, Crabgrass, Large [3, 22] | Plant response rating, Johnsongrass [6, 22]
98: Plant response rating, Lambsquarters [12, 24]
50: Ryegrass, Italian plant response rating [1, 23] | Plant response rating, Velvetleaf [5, 24]
85: Morningglory plant response rating [7, 25] | Plant response rating, Pigweed [8, 24] | Plant response rating, Ragweed [9, 24] | Lambsquarters plant response rating [12, 25]
15: Plant response rating, Wheat [4, 24] | Plant response rating, Johnsongrass [6, 24] | Plant response rating, Soybean (soybean (Glycine max); [24]) | Soybean plant response rating (soybean (Glycine max); [25]) | Blackgrass plant response rating [11, 23] | Barnyardgrass plant response rating [13, 23]
65: Plant response rating, Waterhemp [2, 22]
95: Plant response rating, Morningglory [7, 24]
30: Nutsedge, Yellow plant response rating [10, 23]
40: Plant response rating, Ryegrass, Italian [1, 22] | Plant response rating, Ragweed [9, 22]
75: Plant response rating, Waterhemp [2, 24] | Waterhemp plant response rating [2, 25] | Plant response rating, Morningglory [7, 22] | Plant response rating, Pigweed [8, 22] | Pigweed plant response rating [8, 25] | Ragweed plant response rating [9, 25] | Lambsquarters plant response rating [12, 23]

Reference: patent publication US10597388B2, “Pyridazinone herbicides” (FMC CORPORATION, priority 2014, dated 2020)
